PubChem BioAssay AID248 (DTP/NCI, 2004)
Values joined by “and” are separate entries in the source; they are usually repeats but may differ in a detail not shown here. Equal entries are not always repeated. Inconclusive results and toxic doses are left out.

Test system: L1210 leukemia ip in BDF1 mice, survival T/C
Assay: NCI In Vivo Anticancer Drug Screen. Data for tumor model L1210 Leukemia (intraperitoneal) in B6D2F1 (BDF1) mice
Settings: endpoint: mean survival time, higher = longer survival
Method in brief: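 Tumor cells were implanted, animals were treated, and survival was followed. The result divides the treated measurement by the vehicle-control measurement.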

## O=c1[nH]c(=O)n(C2CC(O)C(CO)O2)cc1C(F)(F)F (stereo not drawn)
dose: 0.16 mg/kg/injection, schedule: Q#B X045 (ip), vehicle: saline
  T/C: 109 % of control
dose: 0.33 mg/kg/injection, schedule: Q#B X045 (ip), vehicle: saline
  T/C: 119 % of control
dose: 0.56 mg/kg/injection, schedule: Q01DX Z (ip), vehicle: saline
  T/C: 112 % of control
dose: 0.66 mg/kg/injection, schedule: Q#B X045 (ip), vehicle: saline
  T/C: 122 % of control
dose: 1.12 mg/kg/injection, schedule: Q01DX Z (ip), vehicle: saline
  T/C: 106 % of control
dose: 1.5 mg/kg/injection, schedule: Q01DX Z (sc), vehicle: saline
  T/C: 112 % of control
dose: 2.25 mg/kg/injection, schedule: Q01DX Z (ip), vehicle: saline
  T/C: 118 % of control
dose: 3.0 mg/kg/injection, schedule: Q01DX Z (sc), vehicle: saline
  T/C: 114 % of control
dose: 3.12 mg/kg/injection, schedule: Q01DX Z (im), vehicle: saline
  T/C: 104 % of control
dose: 4.5 mg/kg/injection, schedule: Q01DX Z (ip), vehicle: saline
  T/C: 114 % of control
dose: 6.0 mg/kg/injection, schedule: Q01DX Z (sc), vehicle: saline
  T/C: 118 % of control
dose: 6.25 mg/kg/injection, schedule: Q01DX006 (iv), vehicle: saline
  T/C: 121 % of control
dose: 6.25 mg/kg/injection, schedule: Q01DX015 (ip), vehicle: saline
  T/C: 120 % of control
dose: 9.0 mg/kg/injection, schedule: Q01DX Z (ip), vehicle: saline
  T/C: 153 % of control
dose: 12.0 mg/kg/injection, schedule: Q01DX Z (sc), vehicle: saline
  T/C: 118 % of control
dose: 12.5 mg/kg/injection, schedule: Q01DX006 (iv), vehicle: saline
  T/C: 115 % of control
dose: 12.5 mg/kg/injection, schedule: Q01DX Z (oral), vehicle: saline
  T/C: 120 % of control
dose: 18.0 mg/kg/injection, schedule: Q01DX Z (ip), vehicle: saline
  T/C: 150 % of control
dose: 18.75 mg/kg/injection, schedule: Q#A X034 (ip), vehicle: water
  T/C: 122 % of control
dose: 20.0 mg/kg/injection, schedule: Q01DX009 (oral), vehicle: saline
  T/C: 116 % of control
dose: 20.0 mg/kg/injection, schedule: Q01DX Z (ip), vehicle: saline
  T/C: 119 % of control
dose: 25.0 mg/kg/injection, schedule: Q01DX015 (ip), vehicle: saline
  T/C: 152 % of control
dose: 25.0 mg/kg/injection, schedule: Q01DX Z (ip), vehicle: saline
  T/C: 160 % of control
dose: 25.0 mg/kg/injection, schedule: Q01DX Z (oral), vehicle: saline
  T/C: 120 % of control
dose: 38.0 mg/kg/injection, schedule: Q01DX Z (ip), vehicle: water
  T/C: 117 % of control
dose: 40.0 mg/kg/injection, schedule: Q01DX009 (oral), vehicle: saline
  T/C: 121 % of control
dose: 45.0 mg/kg/injection, schedule: Q01DX015 (oral), vehicle: saline
  T/C: 122 % of control
dose: 50.0 mg/kg/injection, schedule: Q01DX Z (ip), vehicle: saline
  T/C: 154 % of control
dose: 50.0 mg/kg/injection, schedule: Q01DX Z (sc), vehicle: saline
  T/C: 156 % of control
dose: 64.0 mg/kg/injection, schedule: Q01DX009 (ip), vehicle: water
  T/C: 156 % of control
dose: 65.0 mg/kg/injection, schedule: Q01DX015 (oral), vehicle: saline
  T/C: 104 % of control
dose: 65.0 mg/kg/injection, schedule: Q01DX Z (ip), vehicle: water
  T/C: 157 % of control
dose: 100.0 mg/kg/injection, schedule: Q01DX001 (ip), vehicle: saline
  T/C: 106 % of control and 107 % of control
dose: 100.0 mg/kg/injection, schedule: Q01DX015 (oral), vehicle: saline
  T/C: 120 % of control
dose: 100.0 mg/kg/injection, schedule: Q01DX Z (im), vehicle: saline
  T/C: 154 % of control
dose: 100.0 mg/kg/injection, schedule: Q## X001 (ip), vehicle: saline
  T/C: 103 % of control
dose: 107.0 mg/kg/injection, schedule: Q01DX Z (ip), vehicle: water
  T/C: 154 % of control
dose: 128.0 mg/kg/injection, schedule: Q01DX001 (oral), vehicle: saline
  T/C: 112 % of control
dose: 128.0 mg/kg/injection, schedule: Q01DX009 (ip), vehicle: water
  T/C: 151 % of control
dose: 128.0 mg/kg/injection, schedule: Q## X003 (oral), vehicle: saline
  T/C: 119 % of control
dose: 128.0 mg/kg/injection, schedule: Q## X024 (oral), vehicle: saline
  T/C: 115 % of control
dose: 150.0 mg/kg/injection, schedule: Q01DX Z (ip), vehicle: saline
  T/C: 159 % of control
dose: 150.0 mg/kg/injection, schedule: Q04DX005 (ip), vehicle: water
  T/C: 118 % of control
dose: 150.0 mg/kg/injection, schedule: Q#A X034 (ip), vehicle: water
  T/C: 124 % of control
dose: 180.0 mg/kg/injection, schedule: Q01DX Z (ip), vehicle: water
  T/C: 122 % of control
dose: 200.0 mg/kg/injection, schedule: Q01DX001 (ip), vehicle: saline
  T/C: 109 % of control
dose: 200.0 mg/kg/injection, schedule: Q01DX Z (sc), vehicle: saline
  T/C: 160 % of control
dose: 200.0 mg/kg/injection, schedule: Q## X001 (ip), vehicle: saline
  T/C: 111 % of control
